In patent US9932339B2, “Helquats with heteroaromatic substituents, preparation thereof, and use thereof as G-quadruplex stabilizers” (USTAV ORGANICKE CHEMIE A BIOCHEMIE AV CR, V.V.I., priority 2014, dated 2018):

What was measured:
[1] = system: G-quadruplex oligonucleotide F21T (human telomere); assay: FRET melting of G-quadruplex oligonucleotide F21T with ligands; assay type: binding; details: for ΔTm (° C.) F21T/ds26: helquat 1 μmol·l^−1, oligonucleotide 0.2 μmol·l^−1, 50-fold excess of double-stranded competitor ds26; for ΔTm (° C.) F21T: helquat 1 μmol·l^−1, oligonucleotide 0.2 μmol·l^−1, without competitor
Excerpt: To determine the degree of in vitro interactions of helquats with G-quadruplex(es), the oligonucleotides containing the guanine-rich sequences of human telomere (F21T) and NHE III1 promoter region of c-myc oncogene (Fmyc27T) were used. Both oligonucleotides capable of forming an intramolecular G-quadruplex were end-labeled with suitable fluorophores so as to form donor-acceptor FRET pair (5′-FAM and 3′-TAMRA). If the oligonucleotide is folded into the structure of the G-quadruplex, donor is in close proximity of acceptor and radiationless energy transfer to the acceptor occurs. With increasing temperature of the reaction mixture G-quadruplex structure gradually denatures and thus the donor and acceptor (FAM-TAMRA) drift apart. This leads to an increase in fluorescence of donor (FAM) and a decrease in fluorescence of acceptor (TAMRA).
The result of measurement is the curve of dependence of the intensity of fluorescence of the donor on the temperature. If the G-quadruplex is stabilized by ligand, melting temperature will increase. Melting temperature of G-quadruplex corresponds to the temperature when 50% of the original amount of the folded G-quadruplex is denatured. The measurement outcome is the difference in the melting temperatures (ΔTm) of the G-quadruplex alone and the G-quadruplex stabilized by ligand. In case of Fmyc27T experiments were performed in cacodylate buffer (10 mmol·l^−1, pH=7.2) with KCl (5 mmol·l^−1) and LiCl (95 mmol·l^−1) oligonucleotide and in case of F21T oligonucleotide in cacodylate buffer (10 mmol·l^−1, pH=7.2) with KCl (25 mmol·l^−1) and LiCl (75 mmol·l^−1).
Both oligonucleotides were denatured for 5 minutes at 95° C. and subsequently allowed to cool to room temperature (3 hours) in the switched-off thermoblock. The final oligonucleotide concentration in the reaction mixture was 0.2 μmol·l^−1. Test helquats were present at concentrations of 1 μmol·l^−1. The total reaction volume was 30 μl. The melting temperature of the oligonucleotides alone (without the presence of helquats) under these conditions was 58.1±0.2° C. for F21T and 64.7±0.4° C. for Fmyc27T. For determining the selectivity of binding of helquats to G-quadruplex in comparison with the double-stranded DNA, 50-fold excess of double-stranded DNA ([…] unlabeled competitor ds26 forming a hairpin) is added to the reaction mixture. After the addition to the reaction mixture ds26 competes with labeled oligonucleotide (Fmyc27T or F21T) for ligand binding. […] Melting temperature of oligonucleotides alone in the presence of the competitor is 59.4±0.5° C. for F21T and 66.3° C.±0.6° C. for Fmyc27T.
Fluorescence of FAM donor was measured using real-time PCR apparatus Opticon 2 (excitation 470-505 nm and emission 523-543 nm) in temperature increments of 0.5° C. in the range 25 to 95° C. Evaluation of the sigmoid curves of fluorescence intensity dependent on the temperature were performed in GraphPad Prism 5 (GraphPad Software, Inc., USA). Using nonlinear five parametric regression the inflection point on the curve was calculated that corresponds to the melting temperature (Tm) of the G-quadruplex under the given conditions. The values were obtained from at least three independent measurements.

[2] = system: G-quadruplex in promoter region of the c-myc gene (NHE III1 segment); assay: Dual luciferase analysis with plasmid pGL4.10-myc (luc2) in HGC-27 cells; assay type: cell-based, human; details: for inhibition at 50 µM / activity at 50 µM: Homo sapiens; for inhibition at 50 µM: HGC-27, text summary of tab. 5 (50 μmol·l^−1), read-out: inhibition of expression of firefly luciferase as compared to control; for activity at 50 µM: helquat 50 μmol · l^−1, HGC-27, firefly normalized to Renilla, 24 hours after transfection, read-out: luciferase expression relative to control (control = 100%); for Quantification of expression relative to control (%): control = 100%
Summary of the method: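 HGC-27 cells were co-transfected 1:1 with pGL4.10-myc (luc2), whose firefly luciferase is driven by an 860 bp c-myc regulatory region containing the G-quadruplex-forming NHE III1 segment, and pRL-TK Renilla control, using X-tremeGENE HP DNA in OptiMEM. Compounds were added two hours post-transfection; luminescence read 24 hours after transfection was Renilla-normalized and expressed relative to control.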

SMILES | ΔTm (° C.) F21T/ds26 [1] [°C] | ΔTm (° C.) F21T [1] [°C] | inhibition at 50 µM [2] [%] | activity at 50 µM [2] [%] | Quantification of expression relative to control (%) ([2]; 10 μmol · l^−1) | Quantification of expression relative to control (%) ([2]; 50 μmol · l^−1) | Quantification of expression relative to control (%) ([2]; 150 μmol · l^−1)
O=[N+]([O-])c1cccc2[nH]cc(/C=C/c3cc[n+]4c(c3)-c3c(ccc5c3-c3cccc[n+]3CC5)CC4)c12 (racemic) [LSA-C9-32, (rac)-(E)-2-(2-(4-nitro-1H-indol-3-yl)vinyl)-6,7,10,11-tetrahydrodipyrido[2,1-a:1′,2′-k][2,9]phenanthroline-5,12-diium trifluoromethanesulfonate] | 6.6 | 9.3 | > 20 | 74 | – | – | –
Cc1c(C)c2c(c3c1CC[n+]1ccc(/C=C/c4cccc5c4oc4ccccc45)cc1-3)-c1c3ccccc3cc[n+]1CC2 (racemic) [MJA-C13-8, (rac)-(E)-13-(2-(dibenzo[b,d]furan-4-yl)vinyl)-6,7-dimethyl-4,5,8,9-tetrahydroisoquinolino[1,2-a]pyrido[1,2-k][2,9]phenanthroline-3,10-diium trifluoromethanesulfonate] | 1.4 | 7.4 | > 40 | 56 | 79.3 ± 6.7 | 69.8 ± 6.0 | 57.9 ± 2.5
C(=C\c1cccc2c1oc1ccccc12)/c1cc[n+]2c(c1)-c1c(ccc3c1-c1c4ccccc4cc[n+]1CC3)CC2.O=S(=O)([O-])C(F)(F)F.O=S(=O)([O-])C(F)(F)F [MSB-C13-8, (E)-13-(2-(dibenzo[b,d]furan-4-yl)vinyl)-4,5,8,9-tetrahydroisoquinolino[1,2-a]pyrido[1,2-k][2,9]phenanthroline-3,10-diium trifluoromethanesulfonate] | 3.4 | 9.0 | – | – | – | – | –
Brc1ccc2[nH]cc(/C=C/c3cc4ccccc4[n+]4c3-c3c(ccc5c3-c3cccc[n+]3CCC5)CCC4)c2c1.O=S(=O)([O-])C(F)(F)F.O=S(=O)([O-])C(F)(F)F [MSC-C9-30, 19-((E)-2-(5-bromo-1H-indol-3-yl)vinyl)-6,7,8,11,12,13-hexahydropyrido[1′″,2′″:1″,2″]azepino[4″,3″:5′,6′]benzo[1′,2′:3,4]azepino[1,2-a]quinoline-5,14-diium trifluoromethanesulfonate] | – | – | > 20 | 68 | – | – | –
C(=C\c1c(-c2ccccc2)[nH]c2ccccc12)/c1cc2ccccc2[n+]2c1-c1c(ccc3c1-c1cccc[n+]1CCC3)CCC2.O=S(=O)([O-])C(F)(F)F.O=S(=O)([O-])C(F)(F)F [MSC-C15-8, 19-((E)-2-(2-phenyl-1H-indol-3-yl)vinyl)-6,7,8,11,12,13-hexahydropyrido[1′″,2′″:1″,2″]azepino[4″,3″:5′,6′]benzo[1′,2′:3,4]azepino[1,2-a]quinoline-5,14-diium trifluoromethanesulfonate] | – | – | > 20 | 76 | – | – | –
